Activity calls are given as the source filed them. No cut-off for these calls is given here.
Assays:
Relaxin receptor 1 = target: T1, Relaxin receptor 1 (Homo sapiens, UniProt Q9HBX9); experiment: Agonist activity at RXFP1 receptor (unknown origin) expressed in HEK293 cells assessed as stimulation of cAMP production incubated for 30 mins by TR-FRET based HTRF assay; assay type: functional, cell-based
T1 sequence (Q9HBX9 whole entry): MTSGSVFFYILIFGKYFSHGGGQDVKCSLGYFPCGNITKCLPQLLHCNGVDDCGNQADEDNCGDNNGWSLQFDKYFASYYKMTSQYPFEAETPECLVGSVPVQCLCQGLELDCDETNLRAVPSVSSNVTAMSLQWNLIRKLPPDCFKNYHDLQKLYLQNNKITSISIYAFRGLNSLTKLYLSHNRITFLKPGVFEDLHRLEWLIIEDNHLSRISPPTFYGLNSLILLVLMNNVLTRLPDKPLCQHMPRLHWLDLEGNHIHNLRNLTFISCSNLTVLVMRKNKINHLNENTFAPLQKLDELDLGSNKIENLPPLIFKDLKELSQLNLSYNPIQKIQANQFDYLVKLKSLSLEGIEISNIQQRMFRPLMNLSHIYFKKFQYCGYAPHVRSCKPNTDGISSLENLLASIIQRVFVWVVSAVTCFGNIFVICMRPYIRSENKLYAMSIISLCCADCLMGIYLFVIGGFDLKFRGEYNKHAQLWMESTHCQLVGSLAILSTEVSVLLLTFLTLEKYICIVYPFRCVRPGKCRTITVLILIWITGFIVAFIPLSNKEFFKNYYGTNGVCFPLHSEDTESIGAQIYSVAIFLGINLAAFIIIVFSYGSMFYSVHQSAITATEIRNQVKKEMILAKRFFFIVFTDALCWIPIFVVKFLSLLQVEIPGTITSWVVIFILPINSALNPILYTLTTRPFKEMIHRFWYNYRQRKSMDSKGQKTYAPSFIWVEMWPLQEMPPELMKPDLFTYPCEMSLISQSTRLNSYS

[1] = target: T2, Relaxin receptor 1 (Homo sapiens) (UniProt Q9HBX9); experiment: Agonist activity at RXFP1 receptor (unknown origin) expressed in HEK293 cells assessed as stimulation of cAMP production incubated for 30 mins by TR-FRET based HTRF assay relative to forskolin; assay type: functional, cell-based
T2 sequence (whole entry): T1 sequence (Q9HBX9 whole entry)

Row | SMILES | AC50 (Relaxin receptor 1; hek293) | %max [1] | AC50 (Relaxin receptor 1; read-out: AC50) [µM]
1 | O=C(Nc1cccc(C(F)(F)F)c1)c1ccc(NC(=O)C2CCCCC2)cc1 | Not Active | inactive | 
2 | COc1ccc(C(=O)Nc2ccccc2C(=O)Nc2cccc(C(F)(F)F)c2)cc1 |  | 71% | 9.4
3 | COc1ccccc1C(=O)N(C)c1ccccc1C(=O)N(C)c1cccc(C(F)(F)F)c1 | Not Active | inactive | 
4 | O=C(Nc1ccccc1C(=O)Nc1cccc(C(F)(F)F)c1)c1cccc(Cl)c1 |  | 96% | 1.88
5 | COc1ccccc1C(=O)Nc1ccc(C(=O)Nc2cccc(C(F)(F)F)c2)cc1 | Not Active | inactive | 
6 | O=C(NCc1ccco1)c1ccccc1NC(=O)C1CCCCC1 | Not Active | inactive | 
7 | O=C(Nc1ccccc1C(=O)Nc1cccc(C(F)(F)F)c1)c1ccco1 |  | 81% | 2.36
8 | CN(C)CCOc1ccccc1C(=O)Nc1cccc(C(F)(F)F)c1 | Not Active | inactive | 
9 | O=C(Nc1cccc(-c2ccccc2C(F)(F)F)c1)c1ccccc1NC(=O)C1CCCCC1 |  | 74% | 2.65
10 | O=C(Nc1ccccc1C(=O)Nc1cccc(C(F)(F)F)c1)c1ccc2ccccc2c1 |  | 85% | 14.9
11 | O=C(Cc1ccccc1)Nc1ccccc1C(=O)Nc1cccc(C(F)(F)F)c1 |  | 86% | 8.38
12 | O=C(Nc1cccc(C(F)(F)F)c1)c1ccccc1NCc1ccccc1 |  | 69% | 47.1
13 | CC(C)(C)OC(=O)N1CCN(CCOc2ccccc2C(=O)Nc2ccccc2C(=O)Nc2cccc(C(F)(F)F)c2)CC1 |  | 94% | 1.33
14 | O=CNc1ccccc1C(=O)Nc1cccc(C(F)(F)F)c1 |  | 78% | 47.1
15 | O=C(Nc1cccc(C(F)(F)F)c1)c1ccccc1Nc1ccccc1 |  | 84% | 4.2
16 | CCOc1ccccc1C(=O)Nc1ccccc1C(=O)Nc1cccc(C(C)(C)C)c1 |  | 93% | 1.06
17 | O=C(Nc1cccc(N2CCCCC2)c1)c1ccccc1NC(=O)C1CCCCC1 | Not Active | inactive | 
18 | O=C(Nc1ccccc1C(=O)Nc1cccc(C(F)(F)F)c1)c1ccccc1 |  | 64% | 1.32
19 | O=C(Nc1cccc(C(F)(F)F)c1)c1ccccc1OCCN1CCNCC1 | Not Active | inactive | 
20 | O=C(Nc1ccccc1C(=O)Nc1cccc(C(F)(F)F)c1)c1ccc(C(F)(F)F)cc1 |  | 93% | 5.93

Row | SMILES | AC50 (Relaxin receptor 1; hek293) | %max [1] | AC50 (Relaxin receptor 1; read-out: AC50) [µM]
21 | O=C(Nc1ccccc1C(=O)Nc1cccc(C(F)(F)F)c1)c1cccc([N+](=O)[O-])c1 |  | 84% | 1.06
22 | CCOc1ccccc1C(=O)Nc1ccccc1C(=O)Nc1cccc(-c2nnn[nH]2)c1 | Not Active | inactive | 
23 | CCSc1ccccc1C(=O)Nc1ccccc1C(=O)Nc1cccc(S(=O)(=O)C(F)(F)F)c1 |  | 95% | 0.529
24 | CC(C)(C)c1ccc(NC(=O)c2ccccc2NC(=O)C2CCCCC2)cc1 | Not Active | inactive | 
25 | COc1ccccc1C(=O)Nc1ccccc1C(=O)Nc1cccc(SC)c1 |  | 94% | 1.33
26 | N#Cc1ccc(C(=O)Nc2ccccc2C(=O)Nc2cccc(C(F)(F)F)c2)cc1 |  | 96% | 1.67
27 | COCCNc1ccccc1C(=O)Nc1cccc(C(F)(F)F)c1 |  | 63% | 59.3
28 | O=C(Nc1cccc(C(F)(F)F)c1)c1ccccc1NC(=O)C12CC3CC(CC(C3)C1)C2 |  | 87% | 4.71
29 | O=C(NCc1ccco1)c1ccccc1NC(=O)c1ccccc1NC(=O)C1CCCCC1 |  | 45% | 9.4
30 | COc1ccccc1C(=O)Nc1ccccc1C(=O)Nc1cccc(-c2cccs2)c1 | Not Active | inactive | 
31 | O=C(Nc1cccc(C(F)(F)F)c1)c1ccccc1NC(=O)c1ccccc1Oc1ccccc1 |  | 97% | 0.747
32 | O=C(Nc1cccc(C(F)(F)F)c1)c1ccccc1NCc1cccc(C(F)(F)F)c1 |  | 71% | 47.1
33 | COc1ccccc1Nc1ccccc1C(=O)Nc1cccc(C(F)(F)F)c1 |  | 77% | 4.71
34 | O=C(Nc1cccc(C(F)(F)F)c1)c1ccccc1NCCc1ccccc1 |  | 83% | 9.4
35 | O=C(Nc1cccc(C(F)(F)F)c1)c1ccccc1NC(=O)c1ccccc1C(F)(F)F |  | 70% | 7.47
36 | COc1ccc(NC(=O)c2ccccc2NC(=O)C2CCCCC2)cc1 | Not Active | inactive | 
37 | O=C(Nc1cccc(C(F)(F)F)c1)c1ccccc1NC(=O)C1CCCCCC1 |  | 75% | 2.11
38 | O=C(NCc1ccccc1C(F)(F)F)c1ccccc1NC(=O)C1CCCCC1 | Not Active | inactive | 
39 | CCOc1ccccc1C(=O)Nc1cnccc1C(=O)Nc1cccc(S(=O)(=O)C(F)(F)F)c1 |  | 99% | 2.97
40 | O=C(Nc1cccc(Cl)c1)c1ccccc1NC(=O)C1CCCCC1 |  | 89% | 3.34

Row | SMILES | AC50 (Relaxin receptor 1; hek293) | %max [1] | AC50 (Relaxin receptor 1; read-out: AC50) [µM]
41 | O=C(Nc1ccccc1C(=O)Nc1cccc(C(F)(F)F)c1)c1cccc(-c2ccccc2)c1 |  | 89% | 5.29
42 | Cc1ccccc1C(=O)Nc1ccccc1C(=O)Nc1cccc(C(F)(F)F)c1 |  | 90% | 4.2
43 | CCOc1ccccc1C(=O)Nc1ccccc1C(=O)Nc1cccnc1 |  | 37% | 149
44 | O=C(Nc1ccc2c(c1)CCC2)c1ccccc1NC(=O)C1CCCCC1 |  | 46% | 9.4
45 | COc1cccc(C(=O)Nc2ccccc2C(=O)Nc2cccc(C(F)(F)F)c2)c1 |  | 94% | 1.88
46 | CCOc1ccccc1C(=O)NCCC(=O)Nc1cccc(S(=O)(=O)C(F)(F)F)c1 |  | 90% | 4.71
47 | O=C(Nc1cccc(C(F)(F)F)c1)c1ccccc1NC(=O)c1ccccc1OCCN1CCNCC1 | Not Active | inactive | 
48 | Cc1ccc(CNC(=O)c2ccccc2NC(=O)C2CCCCC2)o1 |  | 31% | 149
49 | CCOc1ccccc1C(=O)Nc1ccccc1C(=O)Nc1cccc(SC(F)(F)F)c1 |  | 98% | 0.666
50 | O=C(Nc1cccc(I)c1)c1ccccc1NC(=O)C1CCCCC1 |  | 84% | 2.97
51 | O=C(Nc1cccc(C(F)(F)F)c1)c1ccccc1NC(=O)C1CC1 |  | 79% | 8.38
52 | O=C(Nc1cccc(-c2ccc(C(F)(F)F)cc2)c1)c1ccccc1NC(=O)C1CCCCC1 | Not Active | inactive | 
53 | CC(C)c1cccc(NC(=O)c2ccccc2NC(=O)C2CCCCC2)c1 |  | 66% | 5.29
54 | O=C(Nc1ccccc1C(=O)Nc1cccc(C(F)(F)F)c1)c1ccc([N+](=O)[O-])cc1 |  | 96% | 1.49
55 | O=C(Nc1cccc(S(=O)(=O)C(F)(F)F)c1)c1ccccc1NC(=O)C1CCCCC1 |  | 87% | 1.06
56 | O=C(Nc1ccccc1C(=O)Nc1cccc(S(=O)(=O)C(F)(F)F)c1)c1ccccc1I |  | 85% | 4.2
57 | O=C(Nc1ccccc1C(=O)Nc1cccc(C(F)(F)F)c1)c1ccccc1I |  | 80% | 7.47
58 | O=C(Nc1ccccc1C(=O)Nc1cccc(C(F)(F)F)c1)c1cccc(Br)c1 |  | 97% | 1.67
